The source of these data is patent publication US20250289816A1, “SALTS AND PHARMACUTICAL COMPOSITIONS THEREOF FOR THE TREATMENT OF INFLAMMATORY DISORDERS” (Alfasigma S.p.A., priority 2014, published 2025).

Molecules are shown by their SMILES. Converted amounts (≈) assume the structure as drawn.

Data set [1] in a line: Dog bioavailability study. It is filed as in vivo, beagle dogs. To be noted: for Cmax / Tmax / Exposure AUC: target dose 10 mg/kg. The method, then:
The dogs are not fasted before dosing, and have free access to water. Every day of the treatment, a half food ration is provided after the T0 blood sampling, 8 to 17 min before treatment, and the second half ration is given just after dosing or 1 h after treatment for period 2. A 3 days washout period is ensured between treatments.
The capsule composition is described in Table XX below.
The capsules are administered orally with water (5-10 mL), to provide good oesophageal transit. Each animal is checked at least once daily.
Blood is collected from the jugular vein into lithium heparinised tubes at TO (before food administration) and then at 1 h, 2 h, 4 h, 6 h, 8 h, 10 h, and 24 h post treatment.
Plasma is then obtained from blood by centrifugation (2500 g for 10 min at 4° C.), and stored at −20° C. until analysis.
After vortex mixing and centrifugation at 4° C., the supernatants are diluted with a 0.5 volume of HPLC grade water in a midi-eppendorf 96-well plate. The plate is sealed and shaken to ensure sample homogeneity prior to analysis.
Pharmacokinetic analysis is performed using WinNonlin™ software version 5.3, using concentrations from individual animals. Non-compartmental analysis is applied to determine the PK parameters (Cmax, Tmax, AUC0-last, t1/2, etc. . . . )
Concentrations below the limit of detection are set to zero for descriptive statistics and PK parameter calculations.

The nature of data set [2]: Solubility study in different solvents (UV-spectrometry). To be noted: at least 24 h. The class given is physicochemical. The method, then: The supersaturated solution is then filtered and the concentration of product in the filtrate is determined using UV-spectrometry.
In water, the influence of the pH is adjusted to pH 2, pH 7, and pH 9. HCl and NaOH are used to adjust the pH.

Data set [3] can be described thus: Dissolution in solvents (salt Protocol 1). It is filed as physicochemical. To be noted: DCM, up to 20 relative volumes, agitated at 50° C.; not in the other nine solvents. The source says:
The solvent is selected from isopropanol, ethanol, methanol, isopropyl acetate, THF, TBME, acetone, methyl ethyl ketone, DCM, and MeCN.

A further data set is described as follows: GVS analysis. It is filed as physicochemical. The source says: The evolution of the material is followed via XPRD at various time points.
Data set [4] in a line: Thermodynamic aqueous solubility by HPLC. It is filed as physicochemical. To be noted: salt obtained by Protocol 4.
The nature of data set [5]: Complementary salt analysis (XRPD, stability evaluation). The class given is physicochemical. To be noted: salt obtained by Protocol 4.
[6] abbreviates: single oral administration, 1 × 100 mg capsule.
The mark [7] stands for this setting: single oral administration, 4 × 25 mg capsules.
Where [8] appears, read: oral capsules, on average at the 2 capsule strengths.

Usually Cmax stands for the peak of the concentration-time curve. One may read the Tmax as the time at which the peak concentration occurs. One may read the Solubility as the concentration that dissolves in the medium under given conditions. In the case of `O=C(Nc1nc2cccc(-c3ccc(CN4CCS(=O)(=O)CC4)cc3)n2n1)C1CC1` [Compound 1, cyclopropanecarboxylic acid {5-[4-(1,1-dioxo-thiomorpholin-4-ylmethyl)-phenyl]-[1,2,4]triazolo[1,5-a]pyridin-2-yl}-amide], in data set [1] (setting [6]), the Cmax was determined as 797 ng/mL and the Tmax stood at 8.0 h. Further, in data set [1] (setting [7]), the Cmax was found to be 894 ng/mL, the “Exposure AUC” value was found to be 10400 ng·h/mL and the Tmax is 6.0 h. Further, the Solubility in data set [2] (0.005M HCl, 20° C.) came to 252 µg/mL (≈ 592 µM). For the same compound, in data set [2] (HP-β-CD 40% pH3, 20° C.), the Solubility was found to be 550 µg/mL (≈ 1290 µM). Moreover, in data set [3], the dissolution in solvent result is on record as “almost full dissolution”.

Take `Cl.O.O.O.O=C(Nc1nc2cccc(-c3ccc(CN4CCS(=O)(=O)CC4)cc3)n2n1)C1CC1` [Compound 1·HCl·3H2O]: the “in vivo exposure compared with Compound 1” value in data set [1] (setting [8]) is on record as “improved exposure”. Besides, the “rate of absorption compared with Compound 1” value in data set [1] (setting [8]) is on record as “more rapidly absorbed”. Also, the figures for the Cmax in data set [1] (setting [6]) and in data set [1] (setting [7]) were 2630 ng/mL and 3050 ng/mL, respectively. Moreover, the “Exposure AUC” value in data set [1] (setting [6]) was 21700 ng·h/mL; in data set [1] (setting [7]) it was 33600 ng·h/mL. The Tmax in data set [1] (setting [6]) and in data set [1] (setting [7]) was 2.0 h throughout. In addition, the T1/2 result in data set [1] (single oral administration, one range across both forms and both capsule strengths) is “Range 4.43-8.96 h”. The Solubility came to 3100 µg/mL in data set [2] (0.005M HCl, 20° C.); 2790 µg/mL in data set [2] (0.01M HCl + 2.0% Tween 80, 20° C.); 2340 µg/mL in data set [2] (0.01M HCl, 20° C.); 415 µg/mL in data set [2] (Acetone, 20° C.); 7360 µg/mL in data set [2] (Acetonitrile, 20° C.); 25600 µg/mL in data set [2] (Acetonitrile/water (1/1), 20° C.). Moreover, the Solubility was 7810 µg/mL in data set [2] (Acetonitrile/water (4/1), 20° C.); 388 µg/mL in data set [2] (Dichloromethane, 20° C.); 764 µg/mL in data set [2] (Ethanol, 20° C.); 7880 µg/mL in data set [2] (HP-β-CD 40% pH2, 20° C.); 9330 µg/mL in data set [2] (HP-β-CD 40% pH3, 20° C.); 2790 µg/mL in data set [2] (HP-β-CD 40% pH4, 20° C.). Moreover, the Solubility is 743 µg/mL in data set [2] (Methanol, 20° C.); 36600 µg/mL in data set [2] (PEG400, 20° C.); 663 µg/mL in data set [2] (Propanol, 20° C.); 11700 µg/mL in data set [2] (Propylene glycol, 20° C.); 208 µg/mL in data set [2] (Tetrahydrofuran, 20° C.); 3170 µg/mL in data set [2] (Water (purified), 20° C.). In addition, the Solubility in data set [2] (Water pH2, 20° C.) turned out to be 8050 µg/mL; in data set [2] (Water pH7, 20° C.), 2260 µg/mL; in data set [2] (Water pH9, 20° C.) it was 2680 µg/mL; in data set [2] (Water/ethanol 1/1, 20° C.) it was 8680 µg/mL; in data set [2] (t-butyl methyl ether, 20° C.) it was 26.3 µg/mL. In addition, the “change in form at elevated RH” value in the data set “GVS analysis” (GVS, followed by XRPD) is “No change in form”. The “temperature of dehydration to Compound 1·HCl anhydrous” value in the data set “GVS analysis” (upon heating) was “above 60 °C”.

The term aqueous solubility denotes how much of the substance goes into solution per volume. Regarding `Cl.O=C(Nc1nc2cccc(-c3ccc(CN4CCS(=O)(=O)CC4)cc3)n2n1)C1CC1` [HCl salt], in data set [4], the aqueous solubility came to 1900 µg/mL. Also, the “hygroscopicity of the salt” value in data set [5] was “non-hygroscopic”. In addition, the “stability of the salt” value in data set [5] (stability evaluation 1 week at 40° C./75% Relative humidity) is listed as “stable”.
